# Assay results reported in PMC7994892, “The M. tuberculosis Rv1523 Methyltransferase Promotes Drug Resistance Through Methylation-Mediated Cell Wall Remodeling and Modulates Macrophages Immune Responses” (Frontiers in Cellular and Infection Microbiology, 2021).
# Target: Rv1523 MTase (Mycobacterium tuberculosis, UniProt Q50584)
# Sequence (Q50584 entry or part of it): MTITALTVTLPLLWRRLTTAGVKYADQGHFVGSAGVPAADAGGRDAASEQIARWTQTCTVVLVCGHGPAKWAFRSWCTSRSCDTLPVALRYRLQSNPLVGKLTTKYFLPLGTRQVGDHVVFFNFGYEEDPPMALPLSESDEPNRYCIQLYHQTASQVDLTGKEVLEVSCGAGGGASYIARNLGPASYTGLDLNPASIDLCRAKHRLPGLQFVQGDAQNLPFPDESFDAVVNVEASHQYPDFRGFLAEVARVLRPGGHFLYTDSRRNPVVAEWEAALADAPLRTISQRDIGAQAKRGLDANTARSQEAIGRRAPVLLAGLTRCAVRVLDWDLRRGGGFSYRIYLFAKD
compound,measurement,value
C[S+](CC[C@H](N)C(=O)O)C[C@H]1O[C@@H](n2cnc3c(N)ncnc32)[C@H](O)[C@@H]1O (stereo partly shown) [S-adenosyl methionine],"coupled colorimetric SAM methyltransferase assay, 510 nm",Rv1523 MTase was able to transfer methyl group from SAM to the cell wall component
